Assays:
Type in all cases: in vivo
[1] = tested on: barnyardgrass (Echinochloa crus-galli); experiment: Test G Post-Emergence Protocol; conditions: Echinochloa crus-galli, post-emergence, 312 h, read-out: Barnyardgrass damage rating; for pest or weed control at 15.625 g/ha: 15.625 g ai/ha, evaluated after 13 days (100=total damage to plant; 0=no damage to plant); for pest or weed control at 62.5 g/ha: 62.5 g ai/ha; for pest or weed control at 62.5 g/ha / pest or weed control at 250 g/ha: evaluated after 13 days, 100=total damage to plant, 0=no damage to plant; for pest or weed control at 250 g/ha: 250 g ai/ha
How it was run: (§1)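 Post-emergence herbicidal damage, scored visually 0–100 at 13 days. Application at 15.625, 62.5 or 250 g/ha onto 8-day-old plants grown under glasshouse control.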

corn (Zea mays) [2] = experiment: Test G Post-Emergence Protocol; conditions: Zea mays, post-emergence, 312 h, read-out: Corn damage rating; for plant injury at 15.625 g/ha: 15.625 g ai/ha, evaluated after 13 days (100=total damage to plant; 0=no damage to plant); for plant injury at 62.5 g/ha: 62.5 g ai/ha; for plant injury at 62.5 g/ha / plant injury at 250 g/ha: evaluated after 13 days, 100=total damage to plant, 0=no damage to plant; for plant injury at 250 g/ha: 250 g ai/ha
How it was run: as §1

[3] = tested on: redroot pigweed (Amaranthus retroflexus); experiment: Test G Post-Emergence Protocol; conditions: Amaranthus retroflexus, post-emergence, 312 h, read-out: Pigweed, Redroot damage rating; for pest or weed control at 15.625 g/ha: 15.625 g ai/ha, evaluated after 13 days (100=total damage to plant; 0=no damage to plant); for pest or weed control at 62.5 g/ha: 62.5 g ai/ha; for pest or weed control at 62.5 g/ha / pest or weed control at 250 g/ha: evaluated after 13 days, 100=total damage to plant, 0=no damage to plant; for pest or weed control at 250 g/ha: 250 g ai/ha
How it was run: as §1

[4] = tested on: ivy-leaved morning glory (Ipomoea hederacea); experiment: Test G Post-Emergence Protocol; conditions: Ipomoea, post-emergence, 312 h, read-out: Morningglory, Ivy-leaved damage rating; for pest or weed control at 15.625 g/ha: 15.625 g ai/ha, evaluated after 13 days (100=total damage to plant; 0=no damage to plant); for pest or weed control at 62.5 g/ha: 62.5 g ai/ha; for pest or weed control at 62.5 g/ha / pest or weed control at 250 g/ha: evaluated after 13 days, 100=total damage to plant, 0=no damage to plant; for pest or weed control at 250 g/ha: 250 g ai/ha
How it was run: as §1

[5] = tested on: velvetleaf (Abutilon theophrasti); experiment: Test G Post-Emergence Protocol; conditions: Abutilon theophrasti, post-emergence, 312 h, read-out: Velvetleaf damage rating; for pest or weed control at 15.625 g/ha: 15.625 g ai/ha, evaluated after 13 days (100=total damage to plant; 0=no damage to plant); for pest or weed control at 62.5 g/ha: 62.5 g ai/ha; for pest or weed control at 62.5 g/ha / pest or weed control at 250 g/ha: evaluated after 13 days, 100=total damage to plant, 0=no damage to plant; for pest or weed control at 250 g/ha: 250 g ai/ha
How it was run: as §1

[6] = tested on: giant foxtail (Setaria faberi); experiment: Test G Post-Emergence Protocol; conditions: Setaria faberi, post-emergence, 312 h, read-out: Foxtail, Giant damage rating; for pest or weed control at 15.625 g/ha: 15.625 g ai/ha, evaluated after 13 days (100=total damage to plant; 0=no damage to plant); for pest or weed control at 62.5 g/ha: 62.5 g ai/ha
How it was run: as §1

[7] = tested on: barnyardgrass (Echinochloa crus-galli); experiment: Test G Pre-Emergence Protocol; conditions: Echinochloa crus-galli, pre-emergence, 312 h, evaluated after 13 days; for pest or weed control at 15.625 g/ha: 15.625 g ai/ha; for pest or weed control at 15.625 g/ha / pest or weed control at 250 g/ha: read-out: Barnyardgrass damage rating (100=total damage to plant; 0=no damage to plant); for pest or weed control at 62.5 g/ha: 62.5 g ai/ha, 100=total damage to plant, 0=no damage to plant, read-out: Barnyardgrass damage rating; for pest or weed control at 250 g/ha: 250 g ai/ha
How it was run: (§2)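 Seeds were sown in standard soil and kept one day in a glasshouse (24/16° C day/night, 14 h light, 65% humidity), then sprayed with compound in acetone/water (50:50) containing 0.5% Tween 20 at 15.625, 62.5 or 250 g/ha. Damage was scored after 13 days (0 = none, 100 = total).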

corn (Zea mays) [8] = experiment: Test G Pre-Emergence Protocol; conditions: Zea mays, pre-emergence, 312 h, evaluated after 13 days; for plant injury at 15.625 g/ha: 15.625 g ai/ha; for plant injury at 15.625 g/ha / plant injury at 250 g/ha: read-out: Corn damage rating (100=total damage to plant; 0=no damage to plant); for plant injury at 62.5 g/ha: 62.5 g ai/ha, 100=total damage to plant, 0=no damage to plant, read-out: Corn damage rating; for plant injury at 250 g/ha: 250 g ai/ha
How it was run: as §2

[9] = tested on: redroot pigweed (Amaranthus retroflexus); experiment: Test G Pre-Emergence Protocol; conditions: Amaranthus retroflexus, pre-emergence, 312 h, evaluated after 13 days; for pest or weed control at 15.625 g/ha: 15.625 g ai/ha; for pest or weed control at 15.625 g/ha / pest or weed control at 250 g/ha: read-out: Pigweed, Redroot damage rating (100=total damage to plant; 0=no damage to plant); for pest or weed control at 62.5 g/ha: 62.5 g ai/ha, 100=total damage to plant, 0=no damage to plant, read-out: Pigweed, Redroot damage rating; for pest or weed control at 250 g/ha: 250 g ai/ha
How it was run: as §2

[10] = tested on: ivy-leaved morning glory (Ipomoea hederacea); experiment: Test G Pre-Emergence Protocol; conditions: Ipomoea, pre-emergence, 312 h, evaluated after 13 days; for pest or weed control at 15.625 g/ha: 15.625 g ai/ha; for pest or weed control at 15.625 g/ha / pest or weed control at 250 g/ha: read-out: Morningglory, Ivy-leaved damage rating (100=total damage to plant; 0=no damage to plant); for pest or weed control at 62.5 g/ha: 62.5 g ai/ha, 100=total damage to plant, 0=no damage to plant, read-out: Morningglory, Ivy-leaved damage rating; for pest or weed control at 250 g/ha: 250 g ai/ha
How it was run: as §2

[11] = tested on: velvetleaf (Abutilon theophrasti); experiment: Test G Pre-Emergence Protocol; conditions: Abutilon theophrasti, pre-emergence, 312 h, evaluated after 13 days; for pest or weed control at 15.625 g/ha: 15.625 g ai/ha; for pest or weed control at 15.625 g/ha / pest or weed control at 250 g/ha: read-out: Velvetleaf damage rating (100=total damage to plant; 0=no damage to plant); for pest or weed control at 62.5 g/ha: 62.5 g ai/ha, 100=total damage to plant, 0=no damage to plant, read-out: Velvetleaf damage rating; for pest or weed control at 250 g/ha: 250 g ai/ha
How it was run: as §2

[12] = tested on: giant foxtail (Setaria faberi); experiment: Test G Pre-Emergence Protocol; conditions: Setaria faberi, pre-emergence, 312 h, evaluated after 13 days; for pest or weed control at 15.625 g/ha: 15.625 g ai/ha; for pest or weed control at 15.625 g/ha / pest or weed control at 250 g/ha: read-out: Foxtail, Giant damage rating (100=total damage to plant; 0=no damage to plant); for pest or weed control at 62.5 g/ha: 62.5 g ai/ha, 100=total damage to plant, 0=no damage to plant, read-out: Foxtail, Giant damage rating; for pest or weed control at 250 g/ha: 250 g ai/ha
How it was run: as §2

[13] = evaluated after 13 days, 100=total damage to plant, 0=no damage to plant

COc1c(F)cc(C2CN(C)C(=O)C2C(=O)Nc2cccc(F)c2F)cc1Cl (centres unmarked) [Compound 1709]
60%: plant injury at 62.5 g/ha (corn (Zea mays) [2]) | pest or weed control at 15.625 g/ha [7]
50%: pest or weed control at 62.5 g/ha [4] | pest or weed control at 250 g/ha [5] | pest or weed control at 250 g/ha [9]
0%: plant injury at 15.625 g/ha (corn (Zea mays) [8]) | pest or weed control at 15.625 g/ha [9] | pest or weed control at 15.625 g/ha [10] | pest or weed control at 15.625 g/ha [11]
70%: pest or weed control at 62.5 g/ha [1] | pest or weed control at 250 g/ha [4] | pest or weed control at 15.625 g/ha [6] | pest or weed control at 62.5 g/ha [7] | plant injury at 62.5 g/ha (corn (Zea mays) [8]) | pest or weed control at 15.625 g/ha [12]
30%: pest or weed control at 15.625 g/ha [1] | plant injury at 15.625 g/ha (corn (Zea mays) [2]) | pest or weed control at 250 g/ha [3] | pest or weed control at 250 g/ha [11]
90%: plant injury at 250 g/ha (corn (Zea mays) [8]) | pest or weed control at 250 g/ha [12]
10%: pest or weed control at 62.5 g/ha [3] | pest or weed control at 15.625 g/ha [4] | pest or weed control at 62.5 g/ha [5] | pest or weed control at 62.5 g/ha [10]
20%: pest or weed control at 15.625 g/ha [3] | pest or weed control at 15.625 g/ha [5] | pest or weed control at 62.5 g/ha [9] | pest or weed control at 250 g/ha [10] | pest or weed control at 62.5 g/ha [11]
80%: pest or weed control at 250 g/ha [1] | plant injury at 250 g/ha (corn (Zea mays) [2]) | pest or weed control at 62.5 g/ha [6, 13] | pest or weed control at 250 g/ha ([6]; 250 g ai/ha, evaluated after 13 days, 100=total damage to plant, 0=no damage to plant) | pest or weed control at 250 g/ha [7] | pest or weed control at 62.5 g/ha [12]

CCOc1cc([C@@H]2CN(C)C(=O)[C@H]2C(=O)Nc2cccc(F)c2C)ccc1C(F)(F)F (racemic) [Compound 1787]
50%: plant injury at 62.5 g/ha (corn (Zea mays) [2]) | pest or weed control at 15.625 g/ha [4] | pest or weed control at 15.625 g/ha [7]
90%: pest or weed control at 250 g/ha [7] | pest or weed control at 250 g/ha [12]
0%: pest or weed control at 15.625 g/ha [9] | pest or weed control at 62.5 g/ha [9] | pest or weed control at 15.625 g/ha [10] | pest or weed control at 62.5 g/ha [10] | pest or weed control at 15.625 g/ha [11]
60%: pest or weed control at 62.5 g/ha [1] | pest or weed control at 250 g/ha [1] | plant injury at 250 g/ha (corn (Zea mays) [2]) | pest or weed control at 62.5 g/ha [7] | pest or weed control at 15.625 g/ha [12]
40%: pest or weed control at 250 g/ha [5] | pest or weed control at 15.625 g/ha [6] | plant injury at 250 g/ha (corn (Zea mays) [8])
20%: pest or weed control at 15.625 g/ha [1] | pest or weed control at 15.625 g/ha [3] | pest or weed control at 62.5 g/ha [3] | pest or weed control at 15.625 g/ha [5] | pest or weed control at 62.5 g/ha [5] | plant injury at 15.625 g/ha (corn (Zea mays) [8]) | plant injury at 62.5 g/ha (corn (Zea mays) [8]) | pest or weed control at 250 g/ha [9] | pest or weed control at 250 g/ha [10] | pest or weed control at 250 g/ha [11]
70%: pest or weed control at 250 g/ha [3] | pest or weed control at 62.5 g/ha [4] | pest or weed control at 250 g/ha [4] | pest or weed control at 62.5 g/ha [6, 13] | pest or weed control at 62.5 g/ha [12]
30%: plant injury at 15.625 g/ha (corn (Zea mays) [2])
10%: pest or weed control at 62.5 g/ha [11]

Source: US12077503B2, “Substituted cyclic amides and their use as herbicides” (FMC CORPORATION, priority 2015, dated 2024)
